Patent US11414424B2, “Cardiac sarcomere inhibitors” (Cytokinetics, Inc., priority 2018, dated 2022)

Test system: bovine cardiac myofibrils
Assay: Myofibril assay: PK/LDH-coupled steady-state ATPase activity of skinned bovine cardiac myofibrils
Format: biochemical
Settings: Ca2+ activating to 75% of maximal rate
Procedure: To evaluate the effect of compounds on the ATPase activity of full-length cardiac myosin in the context of the native sarcomere, skinned myofibril assays were performed. Bovine cardiac myofibrils were obtained by homogenizing bovine cardiac left ventricular tissue in the presence of a detergent such as triton X-100. Such treatment removes membranes and a majority of the soluble cytoplasmic proteins but leaves intact the cardiac sarcomeric acto-myosin apparatus. Myofibril preparations retain the ability to hydrolyze ATP in a Ca^2+ regulated manner. ATPase activities of such myofibril preparations in the presence and absence of compounds were assayed at Ca^2+ concentrations activating to a defined fraction of the maximal rate (i.e., […], 75%). Small molecule agents were assessed for their ability to inhibit the steady-state ATPase activity of bovine cardiac myofibrils using pyruvate kinase and lactate dehydrogenase (PK/LDH)-coupled enzyme system. This assay regenerates myosin-produced ADP into ATP by oxidizing NADH, producing an absorbance change at 340 nm. Prior to testing small molecule agents, the bovine cardiac myofibrils were assessed for their calcium responsiveness and the calcium concentration that achieves either a 50% (pCa50) or 75% (pCa75) activation of the myofibril system was chosen as the final condition for assessing the inhibitory activity of the small molecule agents. All enzymatic activity was measured in a buffered solution containing 12 mM PIPES (piperazine-N,N′-bis(2-ethanesulfonic acid), 2 mM magnesium chloride at pH 6.8 (PM 12 buffer). Final assay conditions were 1 mg/mL of bovine cardiac myofibrils, 4 U/mL pyruvate kinase, 6 U/mL lactate dehydrogenase, 50 μM ATP, 0.1 mg/mL BSA (bovine serum albumin), 10 ppm antifoam, 1 mM DTT, 0.5 mM NADH, 1.5 mM PEP, 0.6 mM EGTA, and an amount of CaCl2 sufficient to achieve either 50% or 75% activation of the myofibril ATPase activity. Results for compounds tested are provided in Table A. Compounds tested were prepared in accordance with the synthetic procedures described herein.

| Compound | CDMF75 IC15 [µM] | CDMF75 IC15 (listed as 867B) [µM] |
| --- | --- | --- |
| Cc1cc(N2CC3(C2)C(=O)N(C(C)C)CC(=O)N3Cc2ccc(Cl)cc2)cc(C)n1 [Compound 49, 5-(4-chlorobenzyl)-2-(2,6-dimethylpyridin-4-yl)-8-isopropyl-2,5,8-triazaspiro[3.5]nonane-6,9-dione] | 9.3 | – |
| CC(C)N1CC(=O)N(Cc2ccc(Cl)cc2)C2(CN(c3nc(C(F)(F)F)cs3)C2)C1=O [Compound 39, 5-(4-chlorobenzyl)-8-isopropyl-2-(4-(trifluoromethyl)thiazol-2-yl)-2,5,8-triazaspiro-[3.5]nonane-6,9-dione] | 3.9 | – |
| CNC(=O)N1CC2(C1)C(=O)N(c1ccc(Cl)c(F)c1)CC(=O)N2Cc1ccc(C(F)(F)F)cc1 [Compound 155, 8-(4-chloro-3-fluorophenyl)-N-methyl-6,9-dioxo-5-(4-(trifluoromethyl)benzyl)-2,5,8-triazaspiro[3.5]-nonane-2-carboxamide] | 0.6 | – |
| CC(C)N1CC(=O)N(Cc2ccc(Cl)cc2)C2(CN(c3cccnn3)C2)C1=O [Compound 23, 5-(4-chlorobenzyl)-8-isopropyl-2-(pyridazin-3-yl)-2,5,8-triazaspiro[3.5]-nonane-6,9-dione] | 2.2 | – |
| CC(=O)N1CC2(C1)C(=O)N(c1ccc(C#N)cc1)CC(=O)N2Cc1ccc(C(F)(F)F)cc1 [Compound 186, 4-(2-acetyl-6,9-dioxo-5-(4-(trifluoromethyl)benzyl)-2,5,8-triazaspiro[3.5]nonan-8-yl)benzonitrile] | 15.8 | – |
| CNC(=O)N1CC2(C1)C(=O)N(c1ccc(Cl)c(C)c1)CC(=O)N2Cc1ccc(C(F)(F)F)cc1 [Compound 166, 8-(4-chloro-3-methyl-phenyl)-N-methyl-6,9-dioxo-5-(4-(trifluoromethyl)-benzyl)-2,5,8-triazaspiro-[3.5]nonane-2-carboxamide] | 2.4 | – |
| CCC(=O)N1CC2(C1)C(=O)N(c1ccc(C#N)cc1)CC(=O)N2Cc1ccc(C(F)(F)F)cc1 [Compound 187, 4-(6,9-dioxo-2-propionyl-5-(4-(trifluoromethyl)benzyl)-2,5,8-triazaspiro[3.5]nonan-8-yl)benzonitrile] | 15.9 | – |
| CC(C)N1CC(=O)N(Cc2ccc(Cl)cc2)C2(CN(c3cc(Cl)cnn3)C2)C1=O [Compound 60, 5-(4-chlorobenzyl)-2-(5-chloropyridazin-3-yl)-8-isopropyl-2,5,8-triazaspiro[3.5]nonane-6,9-dione] | 14.3 | – |
| COC(=O)c1cc(N2CC3(C2)C(=O)N(C(C)C)CC(=O)N3Cc2ccc(Cl)cc2)ccn1 [Compound 35, methyl 4-(5-(4-chloro-benzyl)-8-isopropyl-6,9-dioxo-2,5,8-triazaspiro[3.5]nonan-2-yl)picolinate] | 14.6 | – |
| N#Cc1ccc(N2CC3(C2)C(=O)N(C2CCCCC2)CC(=O)N3Cc2ccc(C(F)(F)F)cc2)nc1 [Compound 62, 6-(8-cydohexyl-6,9-dioxo-5-(4-(trifluoromethyl)-benzyl)-2,5,8-triazaspiro[3.5]nonan-2-yl)nicotinonitrile] | 1.8 | – |
| CC(C)N1CC(=O)N(Cc2ccc(Cl)cc2)C2(CN(c3cscn3)C2)C1=O [Compound 32, 5-(4-chlorobenzyl)-8-isopropyl-2-(thiazol-4-yl)-2,5,8-triazaspiro[3.5]-nonane-6,9-dione] | 9.6 | – |
| Cc1cc(N2CC3(C2)C(=O)N(C(C)C)CC(=O)N3Cc2ccc(C(F)(F)F)cc2)ccn1 [Compound 31, 8-isopropyl-2-(2-methylpyridin-4-yl)-5-(4-(trifluoromethyl)benzyl)-2,5,8-triazaspiro[3.5]-nonane-6,9-dione] | 2.7 | – |

Continued, values first:

| CDMF75 IC15 [µM] | CDMF75 IC15 (listed as 867B) [µM] | Compound |
| --- | --- | --- |
| 0.5 | – | CC(=O)N1CC[C@]2(C1)C(=O)N(c1ccc(C#N)cc1F)CC(=O)N2Cc1ccc(C(F)(F)F)cc1 [Compound 209, (S)-4-(2-acetyl-7,10-dioxo-6-(4-(trifluoromethyl)-benzyl)-2,6,9-triazaspiro-[4.5]decan-9-yl)-3-fluorobenzonitrile] |
| 3.7 | – | CC(C)N1CC(=O)N(Cc2ccc(F)cc2)C(c2ccc(Cl)cc2)C1=O (stereo not shown) [Compound 303, 3-(4-chlorophenyl)-4-(4-fluorobenzyl)-1-isopropylpiperazine-2,5-dione] |
| – | 1.7 | O=C1CN(c2ccc(Cl)cc2F)C(=O)C2(CC(O)C2)N1Cc1ccc(F)cc1 (single isomer, unassigned) [Diastereomer 867B, 8-(4-chloro-2-fluorophenyl)-5-(4-fluorobenzyl)-2-hydroxy-5,8-diazaspiro[3.5]nonane-6,9-dione] |
| 0.8 | – | N#Cc1ccc(N2CC(=O)N(Cc3ccc(Cl)cc3)[C@]3(CCN(C=O)C3)C2=O)c(F)c1 [Compound 220, (S)-4-(6-(4-chlorobenzyl)-2-formyl-7,10-dioxo-2,6,9-triazaspiro[4.5]decan-9-yl)-3-fluorobenzonitrile] |
| 0.7 | – | N#Cc1ccc(N2CC(=O)N(Cc3ccc(C(F)(F)F)cc3)C3(CCOC3)C2=O)c(F)c1 (stereo not shown) [Compound 286, 4-(7,10-dioxo-6-(4-(trifluoromethyl)benzyl)-2-oxa-6,9-diazaspiro[4.5]decan-9-yl)-3-fluorobenzonitrile] |
| 7.3 | – | Cc1cc(Cl)cnc1N1CC(=O)N(Cc2ccc(C(F)(F)F)cc2)C(CC2COC2)C1=O (stereo not shown) [Compound 651, 1-(5-chloro-3-methylpyridin-2-yl)-3-(oxetan-3-ylmethyl)-4-(4-(trifluoromethyl)-benzyl)piperazine-2,5-dione] |
| 1.8 | – | C[C@@H](c1ccc(C(F)(F)F)cc1)N1C(=O)CN(c2ncc(Cl)cc2F)C(=O)C12CN(C=O)C2 [Compound 620, (S)-8-(5-chloro-3-fluoro-pyridin-2-yl)-6,9-dioxo-5-(1-(4-(trifluoromethyl)-phenyl)ethyl)-2,5,8-triazaspiro[3.5]nonane-2-carbaldehyde] |
| 4.0 | – | COc1cnc(N2CC(=O)N(Cc3ccc(C(F)(F)F)cc3)C(C3COC3)C2=O)c(F)c1 (single isomer, unassigned) [Compound 703A, 1-(3-fluoro-5-methoxypyridin-2-yl)-3-(oxetan-3-yl)-4-(4-(trifluoromethyl)benzyl)piperazine-2,5-dione] |
| >39 | – | Cc1cnc(N2CC(=O)N(Cc3ccc(C(F)(F)F)cc3)C(C3COC3)C2=O)c(F)c1 (single isomer, unassigned) [Compound 691B, 1-(3-fluoro-5-methylpyridin-2-yl)-3-(oxetan-3-yl)-4-(4-(trifluoromethyl)benzyl)piperazine-2,5-dione] |
| 5.3 | – | Cc1cc(Cl)cnc1N1CC(=O)N(Cc2ccc(Cl)cc2)C(C2COC2)C1=O (stereo not shown) [Compound 654, 1-(5-chloro-3-methylpyridin-2-yl)-4-(4-chlorobenzyl)-3-(oxetan-3-yl)piperazine-2,5-dione] |
| 1.26 | – | CC(=O)N1CC2(C1)CC1(C2)C(=O)N(c2ncc(Cl)cc2F)CC(=O)N1Cc1ccc(C(F)F)cc1 [Compound 826, 2-acetyl-10-(5-chloro-3-fluoropyridin-2-yl)-7-(4-(difluoromethyl)benzyl)-2,7,10-triazadispiro-[3.1.56.14]dodecane-8,11-dione] |
| 12.2 | – | CNC(=O)N1CC(C2C(=O)N(c3ncc(Cl)cc3F)CC(=O)N2Cc2ccc(C(F)(F)F)cc2)C1 (stereo not shown) [Compound 641, 3-(4-(5-chloro-3-fluoro-pyridin-2-yl)-3,6-dioxo-1-(4-(trifluoromethyl)-benzyl)piperazin-2-yl)-N-methylazetidine-1-carboxamide] |
| 0.4 | – | N#Cc1ccc(N2CC(=O)N(Cc3ccc(Cl)cc3)[C@]3(C[C@H](C(=O)N4CCC(O)CC4)C3)C2=O)c(F)c1 (single isomer, unassigned) [Compound 492B] |
| 0.4 | – | N#Cc1ccc(N2CC(=O)N(Cc3ccc(Cl)cc3)C3(CCN(C(=O)C4CC4)C3)C2=O)c(F)c1 (stereo in doubt) [Compound 213, (S)-4-(6-(4-chlorobenzyl)-2-(cyclopropanecarbonyl)-7,10-dioxo-2,6,9-triazaspiro[4.5]decan-9-yl)-3-fluorobenzonitrile] |
| 0.4 | – | CC(C)[C@H]1C(=O)N(c2ncc(Cl)cc2F)CC(=O)N1Cc1ccc(C(F)(F)F)cc1 [Compound 554, (S)-1-(5-chloro-3-fluoro-pyridin-2-yl)-3-isopropyl-4-(4-(trifluoromethyl)-benzyl)piperazine-2,5-dione] |
| 17.3 | – | CC(=O)NCC1(C)C(=O)N(c2ncc(Cl)cc2F)CC(=O)N1Cc1ccc(Cl)cc1 (stereo not shown) [Compound 631, N-((4-(5-chloro-3-fluoro-pyridin-2-yl)-1-(4-chloro-benzyl)-2-methyl-3,6-dioxopiperazin-2-yl)-methyl)acetamide] |
